The record followed here is PubChem BioAssay (NCI).

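48-hour exposure; five concentrations; linearly interpolated endpoints. The concentration for full growth arrest is given as TGI.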

Holding throughout (test): growth of human tumour cells (NCI), 48 h
In assay [1] the test system is DMS 114 small cell lung.
Assay [2] concerns OVCAR-3 ovarian.
Assay [3] deals with U251 CNS.
Assay [4] has as its system IGROV1 ovarian.
Assay [5] deals with HL-60(TB) leukemia.
The subject of assay [6] is SR leukemia.
In assay [7] the test system is SNB-19 CNS.
Assay [8] relates to XF 498 CNS.
Assay [9] has as its system OVCAR-8 ovarian.
Assay [10] concerns DLD-1 colon.
In assay [11] the test system is KM20L2 colon.
The subject of assay [12] is BT-549 breast.

With `COC(=O)C1=C(c2ccc(Cl)cc2)C(O)N=C(NN)N1` (stereo not drawn), the TGI in [1], in assay [2], in assay [3], in [4], in assay [5] and in assay [6] was more than 100 µM each time. Besides, the TGI in [7], in assay [8], in assay [9] and in assay [10] was more than 100 µM in each case.
Regarding `N#CC(C(=O)CCC(=O)Nc1ccc(Cl)c(Cl)c1)c1ccc(Cl)cc1` (stereo not drawn), the TGI in assay [11], in [1], in [2], in assay [3], in assay [4] and in assay [5] was more than 100 µM throughout. Moreover, the TGI in assay [7], in assay [9] and in assay [10] was more than 100 µM each time.
Turning to `OC1c2ccccc2C2C(O)c3ccccc3C12` (stereo not drawn), the TGI in assay [11], in [1], in assay [2], in assay [3], in assay [4] and in assay [5] was more than 100 µM in each case. The TGI in [9] and in assay [10] was more than 100 µM throughout.
Turning to `COc1cc2nncc(SCc3ccc(Cl)c(Cl)c3)c2cc1OC`, the TGI in assay [11], in assay [1], in assay [2], in [3], in assay [4] and in [5] was more than 100 µM throughout. Besides, the TGI in [6] is more than 100 µM; in [7] it was more than 100 µM; in assay [8], 81.3 µM; in assay [9], more than 100 µM; in assay [12], more than 100 µM.
`CC(=O)O[C@H]1CC[C@@]2(C)C(=C/C(=N\[N+](=O)[O-])[C@H]3C4CCC([C@H](C)CCCC(C)C)[C@@]4(C)CCC32)C1` (stereo partly drawn): the TGI in [11], in [1], in assay [2], in assay [4], in assay [5] and in [7] was more than 100 µM in each case. In addition, the TGI in assay [8], in [9] and in assay [10] was more than 100 µM in each case.
As to `CC(=O)O/N=C/c1cc2c(cc1Br)OCO2`, the TGI in assay [11] is more than 349 µM; in assay [1] it was more than 349 µM; in assay [2], more than 349 µM; in assay [3], more than 34.9 µM; in [4], more than 349 µM; in [5], more than 349 µM. Further, the TGI in [6], in assay [8], in assay [9] and in assay [10] was more than 349 µM in each case.
`CCSC(=O)C1(C)OC2CCCCC2C1=O` (stereo not drawn): the TGI in assay [11], in assay [1], in assay [3], in [4], in [5] and in [6] was more than 100 µM in each case. For the same compound, the TGI in assay [7], in assay [9] and in assay [10] was more than 100 µM in each case.
In the case of `CC1(C)N=C(Oc2ccccc2)n2nccc2N1`, the TGI in assay [11], in [1], in assay [2], in [3], in assay [4] and in assay [5] was more than 100 µM throughout. Also, the TGI in assay [6], in assay [7], in assay [8] and in [10] was more than 100 µM each time.
As for `O=c1cc(-c2ccc(O)cc2)oc2cc(O)cc(O)c12`, the TGI in assay [11] is 88.2 µM; in [1], more than 100 µM; in assay [2], 91.9 µM; in assay [3] it was more than 100 µM; in assay [4] it was 80 µM; in [5] it was more than 100 µM. In addition, the TGI in [6] is more than 100 µM; in assay [7], more than 100 µM; in assay [8], 61.6 µM.
On to `Nc1ccc(C2=Nc3ccccc3SC(c3ccccc3O)C2)cc1` (stereo not drawn), for which the TGI in assay [11] is more than 100 µM; in [1] it was 49.4 µM; in assay [2] it was more than 100 µM; in assay [3] it was more than 100 µM; in assay [4], more than 100 µM; in assay [5] it was 62.7 µM. Also, the TGI in assay [7] was more than 100 µM; in [8] it was 78.5 µM; in assay [9] it was more than 100 µM; in assay [10], more than 100 µM.
In the case of `CC(C)c1cccc(C(C)C)c1NC(=O)C(=O)C1SC(=S)NC1=O` (stereo not drawn), the TGI in assay [11], in assay [3], in assay [4], in assay [5], in assay [6] and in assay [7] was more than 100 µM in each case. Further, the TGI in assay [8], in assay [9] and in assay [10] was more than 100 µM each time.
Take `CCCCCCCCCCCCCCCCCc1nnc(N)o1`: the TGI in assay [11], in assay [2], in assay [3], in assay [4], in assay [5] and in assay [6] was more than 100 µM throughout. For the same compound, the TGI in [7], in assay [8], in assay [9] and in assay [10] was more than 100 µM in each case.
Consider `CCOC(=O)/C=C1\Oc2ccccc2C1(C)O` (stereo not drawn), for which the TGI in assay [11], in [1], in [2], in assay [3], in [4] and in assay [5] was more than 100 µM in each case. The TGI in [6], in assay [7], in assay [9] and in assay [10] was more than 100 µM throughout.
With `CCOC(=O)c1cn(CC)c2cc3c(cc2c1=O)SCS3`, the TGI in [11], in assay [1], in [2], in [3], in assay [4] and in assay [5] was more than 100 µM throughout. Also, the TGI in assay [7], in [9] and in assay [10] was more than 100 µM in each case.
